Where “and” joins values, the source holds several entries; their conditions need not be identical. Equal entries are not always repeated.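 Grown in 96-well plates, cells were treated for 48 hours with each compound at five concentrations. Insufficient inhibition: endpoint recorded as highest concentration tested. GI50 marks 50% less growth. The concentration for full growth arrest is given as TGI.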
What was measured:
Test in all cases: NCI tumour cell line growth inhibition, 48 h
[1] = system: NCI-H522 lung
[2] = system: SK-MEL-5 melanoma
[3] = system: A549 NSCLC
[4] = system: BT-549 breast
[5] = system: HCC-2998 colon
[6] = system: SNB-19 CNS
[7] = system: RXF 393 renal
[8] = system: NCI-H226 lung
[9] = system: HT29 colon
[10] = system: T-47D breast

| SMILES | GI50 [1] | TGI [1] | GI50 [2] | TGI [2] | GI50 [3] | TGI [3] | GI50 [4] | TGI [4] | GI50 [5] | TGI [5] | GI50 [6] | TGI [6] | GI50 [7] | TGI [7] | GI50 [8] | TGI [8] | GI50 [9] | TGI [9] | GI50 [10] | TGI [10] |
| --- | --- | --- | --- | --- | --- | --- | --- | --- | --- | --- | --- | --- | --- | --- | --- | --- | --- | --- | --- | --- |
| COc1cc(N=Nc2cc(Cc3ccc(N(C)C)cc3)c(N)cc2N(C)C)c2ncccc2c1 | 0.398 µM | 2.23 µM | 0.227 µM | 0.714 µM | 0.494 µM | 2.39 µM | 1.41 µM | 5.63 µM | 1.16 µM | 2.66 µM | 0.577 µM | 3.71 µM | 1.08 µM | 2.49 µM | 0.754 µM | 8.28 µM | 0.0607 µM | 2.4 µM | 0.211 µM | 2 µM |
| CC(=O)c1cc2c(N)c(C(=O)Nc3cccc4ccccc34)sc2nc1C | 1.2 µM | > 50 µM | 1.09 µM | > 50 µM | 0.977 µM | > 50 µM | 4.03 µM | > 50 µM | 2.29 µM | > 50 µM | 1.78 µM | > 50 µM | 0.891 µM | 3.46 µM | 21.6 µM | > 50 µM | 1.74 µM | > 50 µM | 1.6 µM | > 50 µM |
| N=C(N)c1ccc2oc3ccc(C(=N)N)cc3c(=O)c2c1 | – | > 100 µM | – | > 100 µM | – | > 100 µM | – | > 100 µM | – | > 100 µM | – | > 100 µM | – | > 100 µM | – | > 100 µM | – | > 100 µM | – | > 100 µM |
| [Br][Pb]([c]1ccccc1)([c]1ccccc1)[c]1ccccc1 | 0.158 µM | 0.352 µM | 0.164 µM | 0.312 µM | 0.356 µM | 1.29 µM | 0.198 µM | 0.541 µM | 0.191 µM | 0.412 µM | 0.221 µM | 0.527 µM | 0.0916 µM | 0.231 µM | 0.173 µM | 0.381 µM | 0.239 µM | 0.508 µM | 0.143 µM | 0.318 µM |
| COc1cccc(C2CC(=O)Nc3c2c(C)nn3-c2nc3ccccc3[nH]2)c1OC (configuration not stated) | 3.7 µM | 17.8 µM | 2.2 µM | 5.74 µM | 3.5 µM | 28.6 µM | 5.52 µM | 42.2 µM | 18.1 µM | > 79.8 µM | 4.07 µM | > 100 µM | 2.91 µM | 10.6 µM | 3.36 µM | 15.9 µM | 4.35 µM | > 47.6 µM | 4.02 µM | 50.7 µM |
| CNC(=O)CCN1CCN(CC/C=C2\c3ccccc3Sc3ccc(Cl)cc32)CC1 | 20 µM | 43.8 µM | 2.41 µM | 6.18 µM | 10.7 µM | 28.5 µM | 10.7 µM | 24 µM | 7.94 µM | 24.2 µM | 16 µM | 30.7 µM | 3.55 µM | 20.4 µM | 19 µM | 37.9 µM | 3.11 µM | 12.4 µM | 9.21 µM | 26.5 µM |
| CN(C)CCCN1c2ccccc2Sc2ccc(C(F)(F)F)cc21 | 1.39 µM | – | 1.57 µM | – | 1.89 µM | 3.83 µM and 31.9 µM and 31.4 µM | 1.77 µM | 3.32 µM and 26.5 µM | 1.46 µM and 10.5 µM and 4.5 µM | 2.89 µM and 23.8 µM and 15.8 µM | 1.71 µM | 3.27 µM and 28.8 µM and 30.3 µM | 1.32 µM | – | 1.56 µM | 3.17 µM | 1.35 µM | 2.82 µM and 25.3 µM | 1.4 µM | 3.18 µM and 29.1 µM |
| CC1(C)N=C(N)N=C(N)N1c1ccc(CCCC(=O)Nc2ccc(S(=O)(=O)F)cc2)cc1 | 8.4 µM | > 100 µM | 3.2 µM | 28.1 µM | 9.82 µM | > 100 µM | 22.8 µM | > 100 µM | 14.5 µM | > 100 µM | 36.5 µM | > 100 µM | 4.22 µM | > 100 µM | 63.1 µM | > 100 µM | 2.9 µM | > 100 µM | 15.8 µM | 98.2 µM |
| COc1cc2ncn(-c3cc(OCc4ccccc4C(F)(F)F)c(C(N)=O)s3)c2cc1OC | 0.168 µM | 3.67 µM | 0.106 µM | > 25 µM | 0.204 µM | > 25 µM | 1.64 µM | > 19.5 µM | 0.276 µM | > 25 µM | 2.4 µM | > 19.3 µM | 0.102 µM | 4.02 µM | 1.01 µM | > 25 µM | 0.0889 µM | > 25 µM | 4.42 µM | > 25 µM |
| CCCCCCCCCCCC/C=C\CC[C@@H](O)[C@H](O)CC[C@H](O)[C@@H]1CC[C@@H](CCCCCCCC2=C[C@H](C)OC2=O)O1 | – | 25.9 µM | 0.0198 µM | 4.11 µM and 4.85 µM | 3.36 µM | 23 µM | 12.8 µM | – | – | 37.1 µM | 9.85 µM | 29.3 µM | – | 37.8 µM | 13.3 µM | 34.3 µM | – | – | 2.85 µM | 21.5 µM |
| O=[N+]([O-])c1ccccc1N=Nc1c(O)[nH]c2c(Cl)cccc12 | – | 26.1 µM | – | > 46.5 µM | – | > 58.6 µM | – | > 82.3 µM | – | > 100 µM | – | > 79.3 µM | – | 98.1 µM | – | > 78.2 µM | – | 99.4 µM | – | > 75 µM |
| CC1(C)CC(O)CC(C)(C)N1O | > 100 µM | > 100 µM | – | > 100 µM | – | > 100 µM | – | > 100 µM | – | > 100 µM | – | > 100 µM | – | > 100 µM | > 100 µM | > 100 µM | – | > 100 µM | – | > 100 µM |
| Nc1ccc(CC[C@H]2CCC/C=C/[C@@H]3C[C@H](O)C[C@H]3[C@H](O)/C=C/C(=O)O2)cc1 | 0.0816 µM | 0.375 µM | < 0.013 µM | 0.0236 µM | 0.0437 µM | > 100 µM | 0.0381 µM | 16.1 µM | 0.0266 µM | – | 0.0504 µM | > 100 µM | 0.0215 µM | 0.0621 µM | 0.0226 µM | 0.0704 µM | 0.0336 µM | 0.577 µM | 0.0751 µM | > 100 µM |
| COc1ccc2nc3ccccc3c(NCCNCCO)c2c1 | 0.38 µM | 1.97 µM | 1.05 µM | 2.35 µM | 0.673 µM | 7.81 µM | 1.01 µM | 4.29 µM | 0.898 µM | 2.5 µM | 0.661 µM | 6.9 µM | 0.763 µM | 2.34 µM | 0.947 µM | 3.38 µM | 0.378 µM | 4.33 µM | 0.673 µM | 6.71 µM |
